These results are taken from patent US20060057071A1, “Paramagnetic complexes with pendant crown compounds showing improved targeting-specificity as MRI contrast agents” (priority 2004, published 2006).

The nature of data set [1]: 1H NMRD profiles (water proton relaxivity). The format is physicochemical. The note with it: 25° C., pH 6.9, fits of NMRD profile and 17O NMR. An excerpt:
(§1) Measuring the relaxation rates of an abundant nuclear species as a function of the magnetic field over a wide range is called relaxometry. A relaxometry profile is a plot of the nuclear magnetic relaxation rate, usually 1/T1, as a function of the Larmor frequency or the magnetic field. This profile is also called a Nuclear Magnetic Resonance Dispersion (NMRD) profile. Compared with the NMRD profile, the prominent advantage of the ^17O NMR technique is that it allows the accurate determination of the water exchange rate 1/TM. This is a consequence of the oxygen nucleus being closer to the paramagnetic centre when bound in the inner-sphere, wherein the outer-sphere contributions to the relaxation rates are negligibly small. With the help of NMRD profiles, ^17O NMR measurements, and the Soloman-Bloemnergen-Morgan theory, several important parameters, such as TM, TR, TV, Δ^2 and rH, can be measured.
Water proton nuclear magnetic resonance dispersion NMRD profile is used to record the longitudinal water proton relaxation rates as a function of magnetic fields. The method is, in principle, sensitive to all of the parameters that influence relaxivity. The ^1H NMRD profiles were measured over a continuum of magnetic field strength from 0.00024 to 0.24 T (corresponding to 0.01-10 MHz proton Larmor frequency, 1 T≈41.7 MHz) on a Spinmaster FFC (Stelar, Mede (PV)), which is a fast field-cycling NMR relaxometer installed at the LIMA Laboratory (Bioindustry Park, Ivrea (TO), Italy). The relaxometer worked under complete control with an absolute uncertainty in 1/T1 of ±2%. The NMRD profiles were measured using 1-2 mM solutions of the complexes.

The nature of data set [2]: Variable-temperature 17O NMR transverse relaxation rate. The format is physicochemical. The note with it: for water exchange rate kex^298 / TM: 25° C.; for TM: pH 6.9, derived from VT 17O NMR spectroscopy; for exchange lifetime TM of inner-sphere coordinated water: 298 K (25° C.), 2.12 T.
Text: as §1
The variable-temperature ^17O NMR measurements were recorded on a JEOL EX-90 (2.1 T) spectrometer that was equipped with a 5 mm probe, by using a D2O external lock. The experimental settings were: spectral width of 10000 Hz, pulse width of 7 μs, acquisition time of 10 ms, 1000 scans, and no sample spinning. Solutions containing 2.6% of ^17O isotope were used. The observed transverse relaxation rates (R2obs^O) were calculated from the signal width at half height.

A further data set relates to kidney cortex. The experiment in a line: In vivo MRI, renal intensity enhancement. The note with it: for maximal renal intensity enhancement (IE): 0.1 mmol/kg (standard dosage), rat, first few minutes after administration; for time after administration at which almost all renal IE was diminished: 0.1 mmol/kg, kidney cortex. On the set-up: species or system rat. The procedure: (§2) To study the MRI contrast and biodistribution behavior of gadolinium complexes […] pendant crown ethers, experiments were performed using male Sprague-Dawley (SD) rats that weighted 150-180 g, and were housed at the Wuhan Institute of Physical and Mathematics of the Chinese Academy of Sciences (Wuhan, Hubei Province, China). All procedures conformed to the institutional guidelines for animal welfare. The rat was injected via the femoral vein with 1 mL saline solution of GdL1 in concentrations of 0.1, 0.033, and 0.02 mM/kg, which are the standard dosage, one third and one fifth of the standard dosage used in clinic currently. MR imaging was performed on a 4.7 T Bruker BIO-SPEC-47/30 MRI scanner with a custom spiral surface coil. The animal was scanned in the prone position in the MRI experiment. […] The total duration of the dynamic scanning lasted up to 400 min after the administration, with an image every 4 min. A water tube was placed in the field of view as a phantom reference. The intensity enhancement (IE) of the region of interest (RI) at time point t is expressed by IE=100% (RI(t)-RI(0))/RI(0) where RI(t) corresponds to the normalized signal intensity as measured at time point, t and RI(0) is the normalized signal intensity precontrast.

The test system of another data set is MIHA cells. The data set is described as follows: AO/EB staining, laser scanning confocal microscopy. The note with it: 10 μM, 1 h, 2 h, 8 h, 24 h incubation, 37° C. The format is cell-based. The procedure: MIHA cells in the absence (control) and presence of Gd-DOTA (10 μM), Gd-DO3A (10 μM), and GdL1 (10 μM) incubated at 37° C. and 5% CO2, 95% air in a humidified incubator for 1 h, 2 h, 8 h, and 24 h, respectively.
Based on cell morphology and cell membrane integrity, normal, necrotic, and apoptotic cells can be distinguished using laser confocal microscopy. FIG. 22 gives the cell morphology in the absence and presence of Gd-DOTA (10 μM), Gd-DO3A (10 μM), and GdL1 (10 μM) at various time intervals after the incubation. In the absence or presence of the Gd^3+ complexes, the nuclei of the living cells were stained as bright blue spots in the nucleus.

The nature of data set [3]: 1H NMRD profiles (water proton relaxivity). The format is physicochemical. The note with it: 20 MHz, 25° C., pH 6.9.
For data set [4] the following is noted: 298 K; cited from earlier work.
A further data set concerns liver parenchyma. The data set is described as follows: In vivo MRI, hepatic intensity enhancement. On the set-up: species or system rat. The note with it: for maximal hepatic IE: rat. The procedure:
as §2

For data set [5] the following is noted: cited from earlier work.

The structures appear in SMILES notation. Values joined by “and” are separate entries in the source; they are usually repeats but may differ in a detail not shown here. Equal values may be shown once.

In data set [1], `O=C([O-])CN1CCNCCN(CC(=O)[O-])CCN(CC(=O)[O-])CC1.[Gd+3]` [Gd-DO3A, reference compound] displayed a D of 2.24E-5 cm^2s^−1, a TR of 66 ps, a TV of 14 ps and an a of 3.9 Å. In addition, in data set [1], the q was found to be 2, the r is reported as 3.15 Å and the “Δ^2” value turned out to be 4.6e+19 s⁻¹. In addition, in data set [2], the “water exchange rate kex^298” value amounted to 6.3e+06 s⁻¹, the TM is on record as 160 ns and the “exchange lifetime TM of inner-sphere coordinated water” value is listed as 160 ns. In the data set with kidney cortex, the “maximal renal intensity enhancement (IE)” value is 140% and the “time after administration at which almost all renal IE was diminished” value is 120 min. Also, the “cell morphology (apoptotic or necrotic cells)” value in the data set on MIHA cells is reported as “no obvious apoptotic or necrotic cells were found”. The “proton relaxivity r1 (r1p)” value in data set [3] was 5.72 mM⁻¹ s⁻¹. Moreover, the “thermodynamic stability log K” value in data set [4] is reported as 22.0.

For the molecule `O=C([O-])CN1CCN(CC(=O)[O-])CCN(CC(=O)O)CCN(CC(=O)[O-])CC1.[Gd+3]` [Gd-DOTA, reference compound], in data set [1], the D stood at 2.24E-5 cm^2s^−1, the TR is reported as 73 ps, the TV turned out to be 7.7 ps and the a is 4.0 Å. For the same molecule, in data set [1], the q was 1, the r stood at 3.1 Å and the “Δ^2” value was found to be 1.3e+19 s⁻¹. In addition, in data set [2], the “water exchange rate kex^298” value came out at 4.1e+06 s⁻¹, the TM was 300 ns and the “exchange lifetime TM of inner-sphere coordinated water” value is reported as 245 ns. In the data set with kidney cortex, the “maximal renal intensity enhancement (IE)” value was 110% and 123%; the “time after administration at which almost all renal IE was diminished” value turned out to be 70 min. Also, the “hepatic IE” value in the data set on liver parenchyma (0.02 mmol/kg) is “no remarkable hepatic IE was detected”. The “time after administration of maximal hepatic IE” value with liver parenchyma (0.1 mmol/kg) lay within 30 to 40 min. Besides, in the data set on liver parenchyma (0.1 mmol/kg (standard dosage)), the “maximal hepatic IE” value was determined as 70%. Also, in the data set on liver parenchyma (0.033 (0.03) mmol/kg), the “time after administration of maximal hepatic IE” value fell in the range of 30 to 40 min and the “maximal hepatic IE” value was determined as 30%. Moreover, in the data set with liver parenchyma (0.1 and 0.033 mmol/kg), the “time after which hepatic IE faded away” value stood at 100 min. In addition, the “cell morphology (apoptotic or necrotic cells)” value in the data set on MIHA cells is “no obvious apoptotic or necrotic cells were found”. Moreover, the “proton relaxivity r1 (r1p)” value in data set [3] was 4.74 mM⁻¹ s⁻¹. The “thermodynamic stability log K” value in data set [4] is 24.6. Moreover, the r1p in data set [5] (20 MHz, 298 K, typical values) was 4.74 mM⁻¹ s⁻¹. In addition, the relaxivity in data set [5] (37° C., 20 MHz) was 3.4 mM⁻¹ s⁻¹. For the same molecule, in data set [5] (298 K, typical values), the “bound water molecular resident lifetime TM” value is reported as “about 244 ns”.
